{"source": "patent USRE46792E1", "about": "“Oxazole compound and pharmaceutical composition” (Otsuka Pharmaceutical Co., Ltd., priority 2005, dated 2018)", "molecular_target": "human PDE4D3 (PDE4D) (Homo sapiens (Human), UniProt Q08499)", "sequence (Q08499 other isoform, or with tags, fused parts or gaps)": "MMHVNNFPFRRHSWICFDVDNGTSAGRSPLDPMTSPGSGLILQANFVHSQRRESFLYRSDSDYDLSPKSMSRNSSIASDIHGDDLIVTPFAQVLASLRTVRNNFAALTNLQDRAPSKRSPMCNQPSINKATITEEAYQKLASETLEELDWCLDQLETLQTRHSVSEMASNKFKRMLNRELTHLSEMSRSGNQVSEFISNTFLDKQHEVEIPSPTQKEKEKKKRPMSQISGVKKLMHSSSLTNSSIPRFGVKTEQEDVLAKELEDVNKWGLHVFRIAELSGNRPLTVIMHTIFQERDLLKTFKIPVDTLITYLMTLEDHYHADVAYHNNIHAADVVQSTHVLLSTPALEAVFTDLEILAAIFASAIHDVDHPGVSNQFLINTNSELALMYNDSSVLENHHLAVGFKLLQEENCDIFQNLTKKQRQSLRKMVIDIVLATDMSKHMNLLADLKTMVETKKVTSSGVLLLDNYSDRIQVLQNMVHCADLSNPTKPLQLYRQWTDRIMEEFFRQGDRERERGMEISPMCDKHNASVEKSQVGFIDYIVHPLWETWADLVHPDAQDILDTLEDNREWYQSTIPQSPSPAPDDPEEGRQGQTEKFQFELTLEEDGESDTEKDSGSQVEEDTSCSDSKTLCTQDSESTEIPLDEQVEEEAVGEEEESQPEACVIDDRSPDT", "assay": "Phosphodiesterase (PDE)4 inhibitory activity evaluation test ([3H]cAMP hydrolysis by PDE4D enzyme solution)", "assay_type": "biochemical", "settings": "recombinant human PDE4D3 expressed in COS-7 cells; [3H]cAMP substrate; 10 min at 30° C.; 2% DMSO", "description": "Phosphodiesterase (PDE)4 Inhibitory Activity Evaluation Test\n(1) Large Scale Plasmid Preparation\nPlasmid containing genes (HPDE4D) coding for human PDE4D3 cDNA (stored in Otsuka America Pharmaceutical, Inc., Maryland Research Laboratories) was transformed in E. coli, cultured on a large scale, and purified using an EndoFree™ Plasmid Maxi Kit (Qiagen).\n(2) Abundant Expression and Purification of PDE4D\nCOS-7 cells derived from African green monkey kidneys were passage cultured in D-MEM media containing 100 units/ml penicillin, 100 μg/ml streptomycin, and 10% FBS. The cells were transfected with the plasmid prepared in (1) above using Lipofectamine™ 2000 (hereinafter referred to as “LF2000”, Invitrogen), following the manufacturer's protocol. The COS-7 cells were inoculated in a 10 cm culture dish on the previous day so as to be 90% confluent on the day of transfection. Culture dishes each containing a plasmid solution (solution A) in which 24 μg of plasmid was diluted in 1.5 ml Opti-MEM I Reduced Serum Medium (Invitrogen) and an LF2000 solution (solution B) in which 60 μl of LF2000 was diluted in 1.5 ml Opti-MEM I Reduced Serum Medium were separately allowed to stand for 5 minutes at room temperature. Solutions A and B were then mixed and the mixture was allowed to stand for 20 minutes at room temperature. The mixture was added to the cultured cells, and incubated at 37° C. (5% CO2) overnight. On the following day, the medium was replaced, and the mixture was further incubated overnight to harvest the cells in the following manner. The cells were washed with PBS (Sigma) once, and 10 ml of a Trypsin-EDTA solution (Sigma) was added to each culture dish. After the solution was distributed to each of the culture dishes, the cells were detached, and the dishes were allowed to stand for about 5 minutes at 37° C. The detached cells from the dishes were suspended in media, collected into centrifuge tubes, and centrifuged at 1200 rpm for 5 minutes at 4° C., and supernatants were removed. The cells were further washed with PBS, and stored at −80° C. KHEM buffer (100 mM Hepes, 50 mM KCl, 10 mM EGTA, 1.92 mM MgCl2, pH 7.4) containing 1 mM DTT, 1 μg/ml antipain, 1 μg/ml aprotinin, 1 μg/ml leupeptin, 1 μg/ml pepstatin A, 157 μg/ml benzamidine, and 120 μg/ml Pefabloc SC was added to the stored cells, and the contents were moved to a glass homogenizer to be homogenized on ice. The cell suspension was centrifuged at 1000 rpm for 5 minutes at 4° C., and the supernatant was further centrifuged at 14000 rpm for one hour. After centrifugation, the supernatant was dispensed into new tubes as PDE4D enzyme solutions, and stored in a deep freezer.\n(3) Determination on Dilution Ratio of PDE4D Enzyme Solutions\nThe PDE4D enzyme solutions prepared in (2) above were dissolved in 20 mM Tris-HCl solution (pH 7.4) to give 10-, 25-, 50-, 100-, 200-, 400-, and 800-fold dilutions of the enzyme solutions. PDE4D activities were measured according to (4) below. The percentage of catalyzed cAMP to total cAMP was calculated, and such a dilution, in which the percentage was between 10% and 30%, was adopted in the inhibitory study below.\n(4) Measurement of PDE4D Inhibitory Activity\nNecessary amounts of test compounds were weighed, and 100% dimethylsulfoxide (DMSO) was added thereto to adjust the concentration to 10 mM. The solutions were stored in a freezer as stock solutions of each test compound. After being thawed when required, the solutions were diluted 20-fold with 100% DMSO to give a 500 μM concentration. Further, 10-fold serial dilutions were made with 100% DMSO to prepare test compounds of different concentrations. 2 μl of solutions containing one of each of the test compound were separately added into 1.2 ml tubes in which 23 μl of 20 mM Tris-HCl (pH 7.4) had been placed beforehand. […]"}
{"smiles": "C=CCCOc1cc(-c2nc(CCC(=O)c3ncccc3C)co2)ccc1OC", "note": "[Example 146, 3-[2-(3-(3-butenyloxy)-4-methoxyphenyl)oxazol-4-yl]-1-(3-methylpyridin-2-yl)propan-1-one]", "values": [{"measurement": "IC50", "result": "< 50", "unit": "nM"}]}
{"smiles": "COc1ccc(-c2nc(CCC(=O)c3ncccc3C)co2)cc1OCCC1CC1", "note": "[Example 153, 3-{2-[3-(2-cyclopropylethoxy)-4-methoxyphenyl]oxazol-4-yl}-1-(3-methylpyridin-2-yl)propan-1-one]", "values": [{"measurement": "IC50", "result": "< 50", "unit": "nM"}]}
{"smiles": "COc1ccc(-c2nc(CCC(=O)c3ncccc3C)co2)cc1OCC(F)(F)F", "note": "[Example 155, 3-{2-[4-methoxy-3-(2,2,2-trifluoroethoxy)phenyl]oxazol-4-yl}-1-(3-methylpyridin-2-yl)propan-1-one]", "values": [{"measurement": "IC50", "result": "< 50", "unit": "nM"}]}
{"smiles": "COc1ccc(-c2nc(CCC(=O)c3ncccc3C)co2)cc1OC1Cc2ccccc2C1", "note": "[Example 159, 3-{2-[3-(indan-2-yloxy)-4-methoxyphenyl]oxazol-4-yl}-1-(3-methylpyridin-2-yl)propan-1-one]", "values": [{"measurement": "IC50", "result": "< 50", "unit": "nM"}]}
{"smiles": "C=CCOc1cc(-c2nc(CCC(=O)c3ccccc3OCC=C)co2)ccc1OC", "note": "[Example 166, 3-[2-(3-allyloxy-4-methoxyphenyl)oxazol-4-yl]-1-(2-allyloxyphenyl)propan-1-one]", "values": [{"measurement": "IC50", "result": "< 50", "unit": "nM"}]}
{"smiles": "COc1ccc(-c2nc(CCC(=O)c3ccccc3OC)co2)cc1OC(C)C", "note": "[Example 169, 3-[2-(3-isopropoxy-4-methoxyphenyl)oxazol-4-yl]-1-(2-methoxyphenyl)propan-1-one]", "values": [{"measurement": "IC50", "result": "< 50", "unit": "nM"}]}
{"smiles": "COc1ccc(-c2nc(CCC(=O)c3ccccc3OC)co2)cc1OCC1CC1", "note": "[Example 170, 3-[2-(3-cyclopropylmethoxy-4-methoxyphenyl)oxazol-4-yl]-1-(2-methoxyphenyl)propan-1-one]", "values": [{"measurement": "IC50", "result": "< 50", "unit": "nM"}]}
{"smiles": "CCOc1cc(-c2nc(CCC(=O)c3ccccc3OC)co2)ccc1OC", "note": "[Example 172, 3-[2-(3-ethoxy-4-methoxyphenyl)oxazol-4-yl]-1-(2-methoxyphenyl)propan-1-one]", "values": [{"measurement": "IC50", "result": "< 50", "unit": "nM"}]}
{"smiles": "C=CCOc1cc(-c2nc(CCC(=O)c3ccccc3OC)co2)ccc1OC", "note": "[Example 174, 3-[2-(3-allyloxy-4-methoxyphenyl)oxazol-4-yl]-1-(2-methoxyphenyl)propan-1-one]", "values": [{"measurement": "IC50", "result": "< 50", "unit": "nM"}]}
{"smiles": "CCOc1ccc(-c2nc(CCC(=O)c3ncccc3C)co2)cc1OCC", "note": "[Example 181, 3-[2-(3,4-diethoxyphenyl)oxazol-4-yl]-1-(3-methylpyridin-2-yl)propan-1-one]", "values": [{"measurement": "IC50", "result": "< 50", "unit": "nM"}]}
{"smiles": "CCOc1ccc(-c2nc(CCC(=O)c3ccccc3OCC)co2)cc1OCC", "note": "[Example 182, 3-[2-(3,4-diethoxyphenyl)oxazol-4-yl]-1-(2-ethoxyphenyl)propan-1-one]", "values": [{"measurement": "IC50", "result": "< 50", "unit": "nM"}]}
{"smiles": "CCCOc1ccccc1C(=O)CCc1coc(-c2ccc(OC)c(OCC)c2)n1", "note": "[Example 195, 3-[2-(3-ethoxy-4-methoxyphenyl)oxazol-4-yl]-1-(2-propoxyphenyl)propan-1-one]", "values": [{"measurement": "IC50", "result": "< 50", "unit": "nM"}]}
{"smiles": "COc1ccc(-c2nc(CCC(=O)c3ccccc3OC(C)C)co2)cc1OCC1CC1", "note": "[Example 208, 3-[2-(3-cyclopropylmethoxy-4-methoxyphenyl)oxazol-4-yl]-1-(2-isopropoxyphenyl)propan-1-one]", "values": [{"measurement": "IC50", "result": "< 50", "unit": "nM"}]}
{"smiles": "C=CCOc1ccccc1C(=O)CCc1coc(-c2ccc(OC)c(OC(C)C)c2)n1", "note": "[Example 224, 1-(2-allyloxyphenyl)-3-[2-(3-isopropoxy-4-methoxyphenyl)oxazol-4-yl]propan-1-one]", "values": [{"measurement": "IC50", "result": "< 50", "unit": "nM"}]}
{"smiles": "CCOc1cc(-c2nc(CCC(=O)c3ccccc3OC(F)F)co2)ccc1OC", "note": "[Example 274, 1-(2-difluoromethoxyphenyl)-3-[2-(3-ethoxy-4-methoxyphenyl)oxazol-4-yl]propan-1-one]", "values": [{"measurement": "IC50", "result": "< 50", "unit": "nM"}]}
{"smiles": "COc1ccc(-c2nc(CCC(=O)c3ccccc3OCCF)co2)cc1OC(C)C", "note": "[Example 275, 1-(2-fluoroethoxyphenyl)-3-[2-(3-isopropoxy-4-methoxyphenyl)oxazol-4-yl]propan-1-one]", "values": [{"measurement": "IC50", "result": "< 50", "unit": "nM"}]}
{"smiles": "C=CCCOc1cc(-c2nc(CCC(=O)c3ccccc3OCCF)co2)ccc1OC", "note": "[Example 276, 3-[2-(3-but-3-enyloxy-4-methoxyphenyl)oxazol-4-yl]-1-[2-(2-fluoroethoxy)phenyl]propan-1-one]", "values": [{"measurement": "IC50", "result": "< 50", "unit": "nM"}]}
{"smiles": "COc1ccc(-c2nc(CCC(=O)c3ccccc3OCC(F)F)co2)cc1OC(C)C", "note": "[Example 278, 1-[2-(2,2-difluoroethoxy)phenyl]-3-[2-(3-isopropoxy-4-methoxyphenyl)oxazol-4-yl]propan-1-one]", "values": [{"measurement": "IC50", "result": "< 50", "unit": "nM"}]}
{"smiles": "CCOc1cc(-c2nc(CCC(=O)c3ccccc3OCC(F)F)co2)ccc1OC", "note": "[Example 280, 1-[2-(2,2-difluoroethoxy)phenyl]-3-[2-(3-ethoxy-4-methoxyphenyl)oxazol-4-yl]propan-1-one]", "values": [{"measurement": "IC50", "result": "< 50", "unit": "nM"}]}
{"smiles": "C=CCOc1cc(-c2nc(CCC(=O)c3ccccc3OCC(F)F)co2)ccc1OC", "note": "[Example 281, 3-[2-(3-allyloxy-4-methoxyphenyl)oxazol-4-yl]-1-[2-(2,2-difluoroethoxy)phenyl]propan-1-one]", "values": [{"measurement": "IC50", "result": "< 50", "unit": "nM"}]}
{"smiles": "COc1ccc(-c2nc(CCC(=O)c3ccccc3OCC(F)F)co2)cc1OCC1CC1", "note": "[Example 283, 3-[2-(3-cyclopropylmethoxy-4-methoxyphenyl)oxazol-4-yl]-1-[2-(2,2-difluoroethoxy)phenyl]propan-1-one]", "values": [{"measurement": "IC50", "result": "< 50", "unit": "nM"}]}
{"smiles": "COc1ccc(-c2nc(CCC(=O)c3ccccc3OCC(F)F)co2)cc1OCC(F)F", "note": "[Example 284, 3-{2-[3-(2,2-difluoroethoxy)-4-methoxyphenyl]oxazol-4-yl}-1-[2-(2,2-difluoroethoxy)phenyl]propan-1-one]", "values": [{"measurement": "IC50", "result": "< 50", "unit": "nM"}]}
{"smiles": "COc1ccc(-c2nc(CCC(=O)c3ccccc3OCC(F)F)co2)cc1OCC(C)C", "note": "[Example 285, 1-[2-(2,2-difluoroethoxy)phenyl]-3-[2-(3-isobutoxy-4-methoxyphenyl)oxazol-4-yl]-propan-1-one]", "values": [{"measurement": "IC50", "result": "< 50", "unit": "nM"}]}
{"smiles": "CCOc1ccc(-c2nc(CCC(=O)c3ccccc3OCCF)co2)cc1OCC", "note": "[Example 289, 3-[2-(3,4-diethoxyphenyl)oxazol-4-yl]-1-[2-(2-fluoroethoxy)phenyl]propan-1-one]", "values": [{"measurement": "IC50", "result": "< 50", "unit": "nM"}]}
{"smiles": "CCOc1ccc(-c2nc(CCC(=O)c3ccccc3OCC(F)F)co2)cc1OCC", "note": "[Example 290, 3-[2-(3,4-diethoxyphenyl)oxazol-4-yl]-1-[2-(2,2-difluoroethoxy)phenyl]propan-1-one]", "values": [{"measurement": "IC50", "result": "< 50", "unit": "nM"}]}
{"smiles": "CCOc1ccc(-c2nc(CCC(=O)c3ccc(F)cc3OCC)co2)cc1OCC", "note": "[Example 299, 3-[2-(3,4-diethoxyphenyl)oxazol-4-yl]-1-(2-ethoxy-4-fluorophenyl)propan-1-one]", "values": [{"measurement": "IC50", "result": "< 50", "unit": "nM"}]}
{"smiles": "CCOc1cc(-c2nc(CCC(=O)c3ccc(F)cc3OCC)co2)ccc1OC", "note": "[Example 304, 1-(2-ethoxy-4-fluorophenyl)-3-[2-(3-ethoxy-4-methoxyphenyl)oxazol-4-yl]propan-1-one]", "values": [{"measurement": "IC50", "result": "< 50", "unit": "nM"}]}
{"smiles": "CCOc1cc(-c2nc(CCC(=O)c3ccc(F)cc3OC(C)C)co2)ccc1OC", "note": "[Example 305, 3-[2-(3-ethoxy-4-methoxyphenyl)oxazol-4-yl]-1-(4-fluoro-2-isopropoxyphenyl)propan-1-one]", "values": [{"measurement": "IC50", "result": "< 50", "unit": "nM"}]}
{"smiles": "COc1ccc(-c2nc(CCC(=O)c3ncccc3C)co2)cc1OCC(F)F", "note": "[Example 309, 3-{2-[3-(2,2-difluoroethoxy)-4-methoxyphenyl]oxazol-4-yl}-1-(3-methylpyridin-2-yl)propan-1-one]", "values": [{"measurement": "IC50", "result": "< 50", "unit": "nM"}]}
{"smiles": "CCC(C)Oc1cc(-c2nc(CCC(=O)c3ncccc3C)co2)ccc1OC", "note": "(stereo not drawn) [Example 311, 3-[2-(3-sec-butoxy-4-methoxyphenyl)oxazol-4-yl]-1-(3-methylpyridin-2-yl)propan-1-one]", "values": [{"measurement": "IC50", "result": "< 50", "unit": "nM"}]}
